Measurements published in US3986930A, “Lipase activity determining method and reagent” (Dainippon Pharmaceutical Co., Ltd., priority 1974, dated 1976).
Each block holds one compound with its values, some of them ahead of it.

Key:
[1] = target: T1, Purified hog pancreatic lipase (type IV, Sigma) (Sus scrofa, UniProt P00591); experiment: Hydrolysis of S-acyl substrates by purified hog pancreatic lipase, DTNB colorimetry at 412 nm, no PMSF; type: biochemical; details: for Relative activity (%): relative activity of BLME for lipase expressed as 100, 10 μl lipase solution
T1 construct: purchased Sigma Chemical Co. type IV; host or cells: hog pancreas
T1 sequence (P00591 1-450): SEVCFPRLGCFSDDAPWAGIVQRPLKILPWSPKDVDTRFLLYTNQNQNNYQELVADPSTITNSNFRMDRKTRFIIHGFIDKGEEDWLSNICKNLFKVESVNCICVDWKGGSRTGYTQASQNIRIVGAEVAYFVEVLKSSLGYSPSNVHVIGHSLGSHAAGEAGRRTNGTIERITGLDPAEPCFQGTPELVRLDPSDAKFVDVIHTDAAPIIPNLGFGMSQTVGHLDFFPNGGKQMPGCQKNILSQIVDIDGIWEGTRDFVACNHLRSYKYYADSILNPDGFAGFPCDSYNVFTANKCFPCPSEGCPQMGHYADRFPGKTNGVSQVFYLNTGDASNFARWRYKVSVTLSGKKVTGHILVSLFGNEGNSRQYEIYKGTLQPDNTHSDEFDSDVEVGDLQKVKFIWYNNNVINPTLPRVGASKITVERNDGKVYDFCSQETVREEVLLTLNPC
Procedure: The determination of lipase activity by the present invention is carried out based on the following principle. That is, a solution of the substrate [an S-acyl compound of the formula (I), (II), (III) or (IV)] in an alcohol is added to the reaction buffer solution containing the sample with lipase and a chromogenic sulfhydryl reagent which reacts with a SH-group-containing compound [hereinafter, referred to as "SH-compound" ] released from the substrate by lipase. The amount of the released SH-compound or the intensity of the colored reaction mixture is proportional to the lipase activity in the sample, and therefore, the lipase activity can be determined by subjecting the resulting colored reaction mixture to colorimetric readings. As a sulfhydryl reagent, 5,5'-dithiobis(2-nitrobenzoic acid) [hereinafter, referred to as "DTNB" ] is used. In case of the measurement of lipase activity by using the S-acyl compound (I) (X is O) and DTNB, it is assumed that the reaction will proceed as shown in the following scheme: [drawing 6]
(§1) To test tubes I and II are added (c) (1 ml) and a test sample (10 - 1,500 BALB unit of lipase or about 10 μl of human serum), and further to the test tube I is added (b) (20 μl; the concentration of PMSF: about 0.4 mM) and the mixture is allowed to stand at room temperature for 5 minutes to inactivate the existing serum caboxylesterase and/or arylesterase.
(§2) To the test tube I is further added a substrate (a) (0.1 ml). The test tubes I and II are kept for 30 minutes at 38° C, and immediately to the test tube II is added the substrate (a) (0.1 ml) and to these test tubes I and II is added acetone (d) (2 ml) to stop the reaction. After mixed well, the tubes I and II were centrifuged (700 × g, for 10 minutes) to remove insoluble serum proteins and turbidity due to serum lipids and the substrate. The optical density of the supernatant of the tube I is measured at 412 nm in a cuvette of 1 cm light path (OD412 ^1 cm ) against that of the tube II.
Purified hog pancreatic lipase (type IV, a product of Sigma Chemical Co.) is dissolved in 1 % human serum albumin solution to give a solution (10 μg/ml). The lipase activity in 10 μl of this solution (correspondingto 0.1 μ g of lipase) is determined in the same manner as described in Example 2 (substrate: BALB) in the absence of PMSF. The lipase activity measured is 800 BALB units.
One μmole of the released SH-group from the substrate gives 4.75 of OD412 ^1 cm under the conditions described in Example 11, and therefore 1 mg of the purified hog pancreatic lipase is calculated to hydrolyze the S-acyl group of the BALB to give a free SH-group at the rate of 1,670 μmoles/30 minutes.
The same lipase solution (10 μl) as prepared in Example 11 is treated in the same manner as described in Example 2 by using various S-acyl compounds as the substrate in the absence of PMSF. The relative activity of the S-acyl compounds are measured. The results are shown in Table 4, wherein the relative activity of BLME for lipase is expressed as 100.

[2] = Storage / heat stability of reagent solutions in alcohol; type: physicochemical; details: heated at 120° C for 30 minutes
Excerpt: According to the present method, the measurement of lipase activity can be easily carried out by using so small amount of sample as 1/10 to 1/100 of that in the known methods described hereinbefore and within a shorter time. Moreover, the substrate becomes micellar merely by mixing and shaking with a buffer solution without addition of an emulsifier or vigorous stirring, and further, the solution of the substrate in an alcohol is stable at room temperature for more than 6 months.
The enzyme inhibitor (e.g. PMSF) is preferably preserved in the form of an alcoholic solution (e.g. ethanolic solution). PMSF in an alcohol solution is stable even if it is heated at 120° C for 30 minutes, but if the solution is mixed with the substrate (I), (II), (III) or (IV) in an alcohol, PMSF undergoes chemical reaction with the substrate to lose its action as an esterase-inhibitor, and therefore, both of the solutions must be preserved separately.

lipase = experiment: Inhibition of lipase by PMSF (rate of hydrolysis of S-acyl substrate, DTNB colorimetry); type: biochemical; details: substrate BLME; 0 - 2.0 mM of PMSF
Procedure: as §1
as §2, with “After mixed well, the tubes I and II were centrifuged (700 × g, for 10 minutes) to remove insoluble serum proteins and turbidity due to serum lipids and the substrate.” left out, “II. […]” for “II.”
(§3) In the same manner as described in Example 2, lipase of 1,100 BALB unit, carboxylesterase of 450 BALB unit or arylesterase of 60 BALB unit is treated (substrate: BALB), wherein the concentration of PMSF is varied, and then the rate of hydrolysis of BALB (relative activity) is measured.
In the same manner as described in Example 3, lipase of 1,100 MPB unit, carboxylesterase of 140 MPB unit or arylesterase of 68 MPB unit is treated (substrate: MPB), wherein the concentration of PMSF is varied, and then the rate of hydrolysis of MPB (relative activity) is measured. […]

arylesterase = experiment: Inhibition of arylesterase by PMSF (rate of hydrolysis of S-acyl substrate, DTNB colorimetry); type: biochemical
Procedure: as §1
as §2, with “After mixed well, the tubes I and II were centrifuged (700 × g, for 10 minutes) to remove insoluble serum proteins and turbidity due to serum lipids and the substrate.” left out, “II. […]” for “II.”
as §3
(§4) In the same manner as described in Example 3, lipase of 1,100 MPB unit, carboxylesterase of 140 MPB unit or arylesterase of 68 MPB unit is treated (substrate: MPB), wherein the concentration of PMSF is varied, and then the rate of hydrolysis of MPB (relative activity) is measured.

carboxylesterase = experiment: Inhibition of carboxylesterase by PMSF (rate of hydrolysis of S-acyl substrate, DTNB colorimetry); type: biochemical
Procedure: as §1, §2
Besides, test tube III is treated in the same manner as test tube I except that the enzyme inhibitor (b) is omitted.
In the same manner as described in Example 2, the determination of lipase activity is carried out except that the substrate (a' ) is used instead of (a).
as §3, §4
In the same manner as described in Example 9, the determination of lipase activity is carried out by using BLME as the substrate. […]

SMILES: CCCC(=O)OCC(CSC(=O)CCC)SC(=O)CCC (stereo not shown) [BALB]
lipase activity measured, OD412 (I-II) x 1,000 ([1]; 0.1 μg hog pancreatic lipase, 30 minutes at 38° C, absence of PMSF): 800 BALB units
activity for lipase (in words) ([1]; absence of PMSF): extremely high activity
rate of hydrolysis of the S-acyl group to free SH-group by 1 mg of lipase ([1]; per 1 mg purified hog pancreatic lipase, calculated from 4.75 OD412 per μmole SH): 1,670 μmoles/30 minutes

SMILES: CCCCCCCCCCCC(=O)OCCSC(=O)CCC [BLME, S-butyroyl-O-lauroylmercaptoethanol]
Relative activity (%) ([1]; absence of PMSF): 100%

SMILES: O=S(=O)(F)Cc1ccccc1 [PMSF, phenylmethylsulfonyl fluoride]
stability of alcohol solution on heating [2]: stable
Inhibition of the lipase activity (lipase): negligible
50 % inhibitory concentration for arylesterase as fraction of that for lipase (arylesterase; substrate BALB): 1/300
50 % inhibitory concentration for arylesterase as fraction of that for lipase (arylesterase; substrate MPB): 1/400
50 % inhibitory concentration for carboxylesterase as fraction of that for lipase (carboxylesterase; substrate BALB): about 1/100
carboxylesterase activity inhibited (carboxylesterase; substrate BLME, 0.2 mM or more of PMSF): ≥ 90%
50 % inhibitory concentration for carboxylesterase as fraction of that for lipase (carboxylesterase; substrate MPB): about 1/200

More lines, now with the values ahead:

relative activity as fraction of the relative activity of BALB ([1]; absence of PMSF): less than 1/10
SMILES: CCCC(=O)OC(CSC(=O)CCC)CSC(=O)CCC [2-butyroyloxy-1,3-bisbutyroylthiopropane]

Relative activity (%) ([1]; absence of PMSF): 35%
SMILES: CCCC(=O)OC(CSC(=O)CCC)CSC(=O)CCC [drawing 28]
